Reference: patent US20220280507A1, “USES OF 5-METHYLTETRAHYDROFOLATE AND ITS COMPOSITION” (Lianyungang Jinkang Hexin Pharmaceutical Co., Ltd., priority 2019, published 2022)
Like-named read-outs stand apart in the source and are kept apart here.

Legend:
[1] = system: hyperlipemia rats; test: Hyperlipemia rats (high-fat diet), biochemical indexes TG, TC, SOD, MDA; format: in vivo, SD rats
Description: Experiment 5 Effect of 5-Methyltetrahydrofolate Calcium on Hyperlipemia Rats
7 weeks later, one rat in the control group and one rat in the model group were sacrificed for liver tissue section to check fatty degeneration of hepatocytes (see Table 7) to confirm whether modeling was successful. The remaining 40 modeling rats were randomly divided into low-dose (1 mg·Kg−1) group, medium-dose (2 mg·Kg−1) group, high-dose (4 mg·Kg−1) group, positive drug group, and model group.
Bicyclol (place of origin: Beijing Xiehe Pharmaceutical Factory, specification: 25 mg/tablet, batch number: H20040467) was used as a positive drug.
After successful modeling, rats were administered drugs with dosages as prescribed for 60 consecutive days, continued to be fed with high-fat diet, and dissected on the 61st day. Liver was harvested and weighed, liver index was calculated, right lobe tissue was taken to prepare frozen sections, and fat staining was performed with Sudan III for pathological scoring according to guidelines for diagnosis and treatment of NAFLD. Another liver tissue was taken to prepare homogenate, and total cholesterol (TC), triglyceride (TG), malondialdehyde (MDA), and superoxide dismutase (SOD) in serum were detected.

[2] = system: mice after drinking; conditions: n=10
Description: (§1) Experiment 8 Tail Suspension Test and Swimming Test in Mice after Drinking
(§2) Clean-grade male Kunming mice, weighing 18-22 g, were chosen. The test was carried out at 23° C. with a humidity of 50%. The mice ate and drank freely, adapting to the environment for 5 days before the test. Then they were divided into 5 groups: model group, normal group, high-dose 5-MTHF-Ca group, medium-dose 5-MTHF-Ca group and low-dose 5-MTHF-Ca group (16 mg·Kg−1, 8mg·Kg−1, 4mg·Kg−1),
(§3) 10 mice in each group. The model group was given (by gavage) Erguotou (batch number: 201603092, specification: 2L, place of origin: Beijing Shunxin Agriculture Co., Ltd.) at 18 ml·Kg−1, and calcium folate (Lianyungang Jinkang Hexin Pharmaceutical Co., Ltd.). The high-dose, medium-dose and low-dose groups were also given the solution containing Erguotou and calcium folate. The mice were tested after 24 h. The tail suspension test is carried out by fixing the tail of a mouse so that it is suspended head down in a state of desperately struggling to escape but unable to escape. After a period of time, record the immobility time of the mouse in a desperate state in this environment to observe the therapeutic effect after administration. The head of the mouse suspended upside down was 10 cm from the bottom of the box, and two mice were suspended at a time, which were separated by a partition to avoid collision. The mice were suspended for 10 min, and the accumulated immobility time of the suspended mice was counted within the latter 5 min.

[3] = system: mice after drinking; conditions: n=10; remark: listed apart in the source
Description: as §1, §2
as §3, with “min. The results are as follows:” for “min.”
The mice were placed in a plastic swimming box with a length of 50 cm, a width of 40 cm and a height of 40 cm. The time was counted for 10 min after the mice were placed in the water. The accumulated immobility time of the mice with only slight limb movements and no struggling, and remaining afloat was recorded within the latter 5 min.

[4] = system: TNF-α; test: LPS-induced inflammatory response in astrocytes, TNF-α release (ELISA); format: cell-based, Kunming mice; conditions: culture supernatant, LPS 1 μg·ml-1 + substance 10 μg·ml-1, 24 h, n=6
From the text: Experiment 9 Inhibition of 5-Methyltetrahydrofolate and Curcumin on LPS-Induced Inflammatory Response in Astrocytes
The cerebral cortex of Kunming mice at 1˜2 d was taken out under aseptic conditions, washed 3 times with cold PBS after removing residual meninges and blood vessels, prepared into single cell suspension by blowing, centrifuged, the supernatant was discarded, and the precipitant was resuspended in AST basic medium (high-sugar DMEM containing 10% FBS). The suspension was inoculated into a culture flask coated with poly-L-lysine (0.1 mg/ml), and cultured in a CO2 incubator. After 24 h, tissue debris and non-adherent cells were removed by replacing the medium. Afterwards, the medium was replaced every 3 days until the cells reached 80% confluence, then the flask was placed on a constant temperature rotary shaker, where the suspension was centrifuged at 180 r/min, 37° C. for 18 h to remove oligodendrocytes and microglia from the upper layer. Then trypsin digestion was used for subculture. […]
LPS (1 μg·ml-1), LPS (1 μg·ml-1)+curcumin (10 μg·ml-1), LPS (1 μg·ml-1)+5-MTHF-Ca (10 μg·ml-1); experimental group: LPS (1 μg·ml-1)+curcumin (5 μg·ml-1)+5-MTHF-Ca (5 μg·ml-1). After 24 h, the culture supernatant was collected, and the cytokines IL-6, IL-1β and TNF-α were detected by ELISA.

[5] = high dose 16 mg·Kg−1 with Erguotou 18 ml·Kg−1, tested after 24 h
[6] = low dose 4 mg·Kg−1 with Erguotou 18 ml·Kg−1, tested after 24 h
[7] = medium dose 8 mg·Kg−1 with Erguotou 18 ml·Kg−1, tested after 24 h

Substance: 5-methyltetrahydrofolate calcium
- MDA ([1]; 1 mg·kg−1·d−1, 60 d): 45.20 ± 8.17 nmol/mgprot
- SOD ([1]; 1 mg·kg−1·d−1, 60 d): 234.20 ± 21.36 U/mgprot
- TC ([1]; 1 mg·kg−1·d−1, 60 d): 1.45 ± 0.38 mmol/L
- TG ([1]; 1 mg·kg−1·d−1, 60 d): 1.07 ± 0.33 mmol/L
- MDA ([1]; 2 mg·kg−1·d−1, 60 d): 42.26 ± 9.35 nmol/mgprot
- SOD ([1]; 2 mg·kg−1·d−1, 60 d): 257.41 ± 30.29 U/mgprot
- TC ([1]; 2 mg·kg−1·d−1, 60 d): 1.57 ± 0.36 mmol/L
- TG ([1]; 2 mg·kg−1·d−1, 60 d): 1.03 ± 0.55 mmol/L
- MDA ([1]; 4 mg·kg−1·d−1, 60 d): 40.98 ± 11.37 nmol/mgprot
- SOD ([1]; 4 mg·kg−1·d−1, 60 d): 260.97 ± 30.04 U/mgprot
- TC ([1]; 4 mg·kg−1·d−1, 60 d): 1.50 ± 0.34 mmol/L
- TG ([1]; 4 mg·kg−1·d−1, 60 d): 1.05 ± 0.63 mmol/L
- Suspension immobility time [2, 5]: 63.53 ± 2.98 S
- Suspension immobility time [2, 6]: 72.42 ± 4.52 S
- Suspension immobility time [2, 7]: 68.32 ± 3.46 S
- Swimming immobility time [3, 5]: 104.64 ± 5.24 S
- Swimming immobility time [3, 6]: 123.56 ± 3.64 S
- Swimming immobility time [3, 7]: 110.42 ± 2.64 S
- TNF-α [4]: 489.21 ± 10.71 pg/mL
